Measured values as given in PubChem BioAssay (NCI).
“And” between values parts separate entries of the source, which are not always exact repeats. Identical values can stand only once.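 96-well plates; 48 h exposure; 5 concentrations. Endpoints by linear interpolation between flanking doses. Not reached: highest tested concentration assigned. GI50 = concentration required for 50% inhibition of growth. TGI: total growth inhibition.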

Key:
Assay in all cases: DTP human tumour cell line panel, 48 h; in the data active = GI50 below about 0.43 µM; inactive = the rest
786-0 renal = test system: 786-0 renal
A498 renal = test system: A498 renal
A549 NSCLC = test system: A549 NSCLC
ACHN renal = test system: ACHN renal
BT-549 breast = test system: BT-549 breast
CAKI-1 renal = test system: CAKI-1 renal
CCRF-CEM leukemia = test system: CCRF-CEM leukemia
COLO 205 colon = test system: COLO 205 colon
DLD-1 colon = test system: DLD-1 colon
DMS 114 small cell lung = test system: DMS 114 small cell lung
DMS 273 small cell lung = test system: DMS 273 small cell lung
DU-145 prostate = test system: DU-145 prostate
EKVX NSCLC = test system: EKVX NSCLC
HCC-2998 colon = test system: HCC-2998 colon
HCT-116 colon = test system: HCT-116 colon
HCT-15 colon = test system: HCT-15 colon
HL-60(TB) leukemia = test system: HL-60(TB) leukemia
HOP-62 NSCLC = test system: HOP-62 NSCLC
HOP-92 NSCLC = test system: HOP-92 NSCLC
HS 578T breast = test system: HS 578T breast
HT29 colon = test system: HT29 colon
IGROV1 ovarian = test system: IGROV1 ovarian
K-562 leukemia = test system: K-562 leukemia
KM12 colon = test system: KM12 colon
KM20L2 colon = test system: KM20L2 colon
LOX IMVI melanoma = test system: LOX IMVI melanoma
LXFL 529 NSCLC = test system: LXFL 529 NSCLC
M14 melanoma = test system: M14 melanoma
MALME-3M melanoma = test system: MALME-3M melanoma
MCF7 breast = test system: MCF7 breast
MDA-MB-231 breast = test system: MDA-MB-231 breast
MDA-MB-435 = test system: MDA-MB-435
MDA-N = test system: MDA-N
MOLT-4 leukemia = test system: MOLT-4 leukemia
NCI-H226 lung = test system: NCI-H226 lung
NCI-H23 lung = test system: NCI-H23 lung
NCI-H460 lung = test system: NCI-H460 lung
NCI-H522 lung = test system: NCI-H522 lung
NCI/ADR-RES ovarian = test system: NCI/ADR-RES ovarian
OVCAR-3 ovarian = test system: OVCAR-3 ovarian
OVCAR-4 ovarian = test system: OVCAR-4 ovarian
OVCAR-5 ovarian = test system: OVCAR-5 ovarian
OVCAR-8 ovarian = test system: OVCAR-8 ovarian
PC-3 prostate = test system: PC-3 prostate
RPMI-8226 leukemia = test system: RPMI-8226 leukemia
RXF 393 renal = test system: RXF 393 renal
SF-268 CNS = test system: SF-268 CNS
SF-295 CNS = test system: SF-295 CNS
SF-539 CNS = test system: SF-539 CNS
SK-MEL-2 melanoma = test system: SK-MEL-2 melanoma
SK-MEL-28 melanoma = test system: SK-MEL-28 melanoma
SK-MEL-5 melanoma = test system: SK-MEL-5 melanoma
SK-OV-3 ovarian = test system: SK-OV-3 ovarian
SN12C renal = test system: SN12C renal
SNB-19 CNS = test system: SNB-19 CNS
SNB-75 CNS = test system: SNB-75 CNS
SNB-78 CNS = test system: SNB-78 CNS
SR leukemia = test system: SR leukemia
SW-620 colon = test system: SW-620 colon
T-47D breast = test system: T-47D breast
TK-10 renal = test system: TK-10 renal
U251 CNS = test system: U251 CNS
UACC-257 melanoma = test system: UACC-257 melanoma
UACC-62 melanoma = test system: UACC-62 melanoma
UO-31 renal = test system: UO-31 renal
XF 498 CNS = test system: XF 498 CNS
HOP-18 NSCLC = test system: HOP-18 NSCLC
M19-MEL melanoma = test system: M19-MEL melanoma

CCN(CC)CCCC(C)Nc1ccnc2cc(Cl)ccc12 (stereo not drawn)
44.5 µM: TGI (KM20L2 colon)
69.6 µM: TGI (RPMI-8226 leukemia)
> 100 µM and 14.9 µM: TGI (SK-MEL-2 melanoma)
33.9 µM: TGI (MDA-N)
> 100 µM and 44.9 µM: TGI (HOP-92 NSCLC)
> 100 µM: TGI (A498 renal) | TGI (A549 NSCLC) | TGI (ACHN renal) | TGI (BT-549 breast) | TGI (CCRF-CEM leukemia) | TGI (DLD-1 colon) | TGI (DU-145 prostate) | TGI (EKVX NSCLC) | TGI (HCT-15 colon) | TGI (HOP-62 NSCLC) | TGI (HS 578T breast) | TGI (HT29 colon) | TGI (IGROV1 ovarian) | TGI (KM12 colon) | TGI (LXFL 529 NSCLC) | TGI (NCI-H226 lung) | TGI (NCI-H23 lung) | TGI (NCI-H460 lung) | TGI (NCI-H522 lung) | TGI (NCI/ADR-RES ovarian) | TGI (OVCAR-4 ovarian) | TGI (OVCAR-5 ovarian) | TGI (OVCAR-8 ovarian) | TGI (PC-3 prostate) | TGI (SF-268 CNS) | TGI (SK-OV-3 ovarian) | TGI (SNB-19 CNS) | TGI (SNB-75 CNS) | TGI (SNB-78 CNS) | TGI (SW-620 colon) | TGI (TK-10 renal) | TGI (UACC-62 melanoma)
> 100 µM and 34.2 µM: TGI (HL-60(TB) leukemia)
88.2 µM and 32.4 µM: TGI (K-562 leukemia)
> 100 µM and 42 µM: TGI (HCT-116 colon)
> 100 µM and 38.7 µM: TGI (COLO 205 colon)
48.2 µM and 63.3 µM: TGI (SK-MEL-5 melanoma)
48.8 µM: TGI (HCC-2998 colon)
> 100 µM and 26.2 µM: TGI (RXF 393 renal)
35.7 µM and > 62.1 µM: TGI (UACC-257 melanoma)
59.9 µM and > 60.1 µM: TGI (SF-295 CNS)
> 100 µM and 97.1 µM: TGI (SN12C renal)
87 µM: TGI (DMS 273 small cell lung)
32.6 µM: TGI (XF 498 CNS)
35.7 µM and 32.5 µM: TGI (SF-539 CNS)
66.2 µM: TGI (SR leukemia)
75.6 µM and > 100 µM: TGI (OVCAR-3 ovarian)
48.7 µM and 35.7 µM: TGI (MALME-3M melanoma)
> 100 µM and 23.9 µM: TGI (786-0 renal)
32.5 µM and 28.4 µM: TGI (M14 melanoma)
56.4 µM: TGI (DMS 114 small cell lung)
> 100 µM and 50 µM: TGI (MOLT-4 leukemia)
43.3 µM and 37.3 µM: TGI (MDA-MB-435)
48.8 µM and 45 µM: TGI (LOX IMVI melanoma)
inactive: GI50 (786-0 renal) 67.2 µM | GI50 (A498 renal) > 100 µM | GI50 (A549 NSCLC) 64.9 µM | GI50 (ACHN renal) > 100 µM | GI50 (BT-549 breast) 55.9 µM | GI50 (CAKI-1 renal) 28.8 µM | GI50 (CCRF-CEM leukemia) 38.8 µM | GI50 (COLO 205 colon) 50.8 µM | GI50 (DU-145 prostate) > 100 µM | GI50 (HCT-116 colon) 25.6 µM | GI50 (HCT-15 colon) 57.9 µM | GI50 (HL-60(TB) leukemia) 36.1 µM | GI50 (HOP-62 NSCLC) > 100 µM | GI50 (HOP-92 NSCLC) 52 µM | GI50 (HS 578T breast) > 100 µM | GI50 (HT29 colon) 45.7 µM | GI50 (IGROV1 ovarian) > 100 µM | GI50 (K-562 leukemia) 22.6 µM | GI50 (KM12 colon) 79.5 µM | GI50 (LOX IMVI melanoma) 18.4 µM | GI50 (M14 melanoma) 18.5 µM | GI50 (MCF7 breast) 63.9 µM | GI50 (MDA-MB-231 breast) > 100 µM | GI50 (MDA-MB-435) 20.3 µM | GI50 (MOLT-4 leukemia) 62.9 µM | GI50 (NCI-H226 lung) > 100 µM | GI50 (NCI-H460 lung) 66.6 µM | GI50 (NCI-H522 lung) > 100 µM | GI50 (OVCAR-3 ovarian) 22.3 µM | GI50 (OVCAR-4 ovarian) > 100 µM | GI50 (OVCAR-8 ovarian) 57.5 µM | GI50 (PC-3 prostate) 98.4 µM | GI50 (RXF 393 renal) 7.95 µM | GI50 (SK-MEL-2 melanoma) > 100 µM | GI50 (SK-MEL-28 melanoma) 39.9 µM | GI50 (SK-MEL-5 melanoma) 21.9 µM | GI50 (SK-OV-3 ovarian) > 100 µM | GI50 (SN12C renal) > 100 µM | GI50 (SNB-19 CNS) > 100 µM | GI50 (SNB-75 CNS) > 100 µM | GI50 (T-47D breast) > 100 µM | GI50 (TK-10 renal) 42.1 µM | GI50 (U251 CNS) > 100 µM | GI50 (UACC-257 melanoma) 19.8 µM | GI50 (UACC-62 melanoma) 37.6 µM | GI50 (UO-31 renal) 84.8 µM
> 100 µM and 66.1 µM: TGI (U251 CNS)
> 100 µM and 64.1 µM: TGI (T-47D breast)
> 100 µM and 46.4 µM: TGI (UO-31 renal)
> 100 µM and 73.4 µM: TGI (MDA-MB-231 breast)
79.7 µM and 55.7 µM: TGI (CAKI-1 renal)
> 100 µM and 42.3 µM: TGI (MCF7 breast) | TGI (SK-MEL-28 melanoma)

CCOC(=O)CC1COc2ccc3c(c21)OCO3 (stereo not drawn)
> 100 µM: TGI (786-0 renal) | TGI (A498 renal) | TGI (A549 NSCLC) | TGI (ACHN renal) | TGI (CCRF-CEM leukemia) | TGI (COLO 205 colon) | TGI (DLD-1 colon) | TGI (DMS 114 small cell lung) | TGI (DMS 273 small cell lung) | TGI (EKVX NSCLC) | TGI (HCC-2998 colon) | TGI (HCT-116 colon) | TGI (HCT-15 colon) | TGI (HL-60(TB) leukemia) | TGI (HOP-18 NSCLC) | TGI (HOP-62 NSCLC) | TGI (HOP-92 NSCLC) | TGI (HT29 colon) | TGI (IGROV1 ovarian) | TGI (K-562 leukemia) | TGI (KM12 colon) | TGI (KM20L2 colon) | TGI (LOX IMVI melanoma) | TGI (LXFL 529 NSCLC) | TGI (M14 melanoma) | TGI (M19-MEL melanoma) | TGI (MALME-3M melanoma) | TGI (MOLT-4 leukemia) | TGI (NCI-H226 lung) | TGI (NCI-H23 lung) | TGI (NCI-H460 lung) | TGI (OVCAR-3 ovarian) | TGI (OVCAR-4 ovarian) | TGI (OVCAR-5 ovarian) | TGI (OVCAR-8 ovarian) | TGI (RPMI-8226 leukemia) | TGI (SF-295 CNS) | TGI (SF-539 CNS) | TGI (SK-MEL-2 melanoma) | TGI (SK-MEL-28 melanoma) | TGI (SK-MEL-5 melanoma) | TGI (SK-OV-3 ovarian) | TGI (SN12C renal) | TGI (SNB-19 CNS) | TGI (SNB-75 CNS) | TGI (SNB-78 CNS) | TGI (SR leukemia) | TGI (SW-620 colon) | TGI (TK-10 renal) | TGI (U251 CNS) | TGI (UACC-257 melanoma) | TGI (UACC-62 melanoma) | TGI (UO-31 renal) | TGI (XF 498 CNS)

N#CC12CCC1C1CCCCC12N1CCSCC1 (stereo not drawn)
> 100 µM: TGI (786-0 renal) | TGI (A498 renal) | TGI (A549 NSCLC) | TGI (ACHN renal) | TGI (CAKI-1 renal) | TGI (CCRF-CEM leukemia) | TGI (COLO 205 colon) | TGI (DLD-1 colon) | TGI (DMS 114 small cell lung) | TGI (DMS 273 small cell lung) | TGI (HCC-2998 colon) | TGI (HCT-116 colon) | TGI (HCT-15 colon) | TGI (HOP-18 NSCLC) | TGI (HOP-62 NSCLC) | TGI (HOP-92 NSCLC) | TGI (HT29 colon) | TGI (IGROV1 ovarian) | TGI (K-562 leukemia) | TGI (KM12 colon) | TGI (KM20L2 colon) | TGI (LXFL 529 NSCLC) | TGI (M19-MEL melanoma) | TGI (MOLT-4 leukemia) | TGI (NCI-H460 lung) | TGI (OVCAR-3 ovarian) | TGI (OVCAR-8 ovarian) | TGI (RPMI-8226 leukemia) | TGI (SF-295 CNS) | TGI (SF-539 CNS) | TGI (SK-MEL-2 melanoma) | TGI (SK-MEL-28 melanoma) | TGI (SN12C renal) | TGI (SNB-19 CNS) | TGI (SNB-75 CNS) | TGI (SNB-78 CNS) | TGI (SR leukemia) | TGI (SW-620 colon) | TGI (U251 CNS) | TGI (UACC-62 melanoma) | TGI (UO-31 renal) | TGI (XF 498 CNS)
> 10 µM: TGI (NCI-H23 lung) | TGI (OVCAR-4 ovarian) | TGI (UACC-257 melanoma)
46.1 µM: TGI (HL-60(TB) leukemia)
86.5 µM: TGI (RXF 393 renal)
